Laboratory results from US20240197658A1, “COMPOSITION FOR INHIBITING ANTI-CANCER DRUG RESISTANCE” (AJOU UNIVERSITY INDUSTRY-ACADEMIC COOPERATION FOUNDATION, priority 2022, published 2024).

How the values were obtained:
Format in all cases: cell-based
[1] = system: fibroblasts CAF47, CAF51, CAF98, and CAF104; assay: Confirmation of inhibition of senescence of fibroblasts (shape observation); details: FIG. 2
Method: An experiment was performed to confirm changes in shapes of fibroblasts by treating several fibroblasts CAF47, CAF51, CAF98, and CAF104 with an anti-cancer drug, 5-fluorouracil (5-FU), and then treating Example thereto.
FIG. 2 illustrates results of observing the shapes of fibroblasts under various conditions according to Experimental Example of the present disclosure.

SNU668 cells = assay: Cell viability of gastric cancer cells cultured in fibroblast conditioned media; details: FIG. 3
Method: Gastric cancer cells, SNU668 cells, were cultured in conditioned media of fibroblasts, CAF98 and CAF104, respectively, and treated with Example to confirm changes in cell viability of cancer cells.
FIG. 3 illustrates results of confirming the cell viability of SNU66, a gastric cancer cell, under various conditions according to Experimental Example of the present disclosure.

SNU668 = assay: Migration of gastric cancer cells in fibroblast condition media / co-culture with CAFs; details: for migration of gastric cancer cells: FIGS. 4 and 5
Method: An experiment was performed to confirm changes in migration of gastric cancer cells when treating gastric cancer cells with a substance according to Example (ftaxilide).
SNU668 was co-cultured with 5-FU in various types of fibroblast condition media, and sequentially additionally treated with 5-FU and Example to confirm changes in the migration of gastric cancer cells.
FIG. 4 illustrates results of observing the migration of SNU668, a gastric cancer cell, under various conditions according to Experimental Example of the present disclosure.
FIG. 5 illustrates results of measuring the migration of SNU668, a gastric cancer cell, under various conditions according to Experimental Example of the present disclosure.

[2] = CAF treated with Example (100 μM 5-FU+5 μM Example)

Compound	shapes of fibroblasts (characteristics of senescent cells) ([1]; fibroblasts CAF47, CAF51, CAF98, CAF104 treated with 5-FU)	cell viability of cancer cells (SNU668 cells; SNU668 in conditioned medium of CAF98 and CAF104, treated with 5-FU (C98_5FU, C104_5FU))	migration of gastric cancer cells (SNU668; CAFs senesced by 5-FU then co-cultured with SNU668 (100 μM 5-FU))	migration of gastric cancer cells (SNU668; SNU668 treated with 5-FU (SNU668+5FU))	shapes of fibroblasts ([1]; fibroblasts treated with 5-FU, then with Example)	cell viability of cancer cells (SNU668 cells; SNU668 in conditioned medium of CAF98 and CAF104, 5-FU, further treated with Example (C98_5FU_Ftaxil, C104_5FU_Ftaxil))	senescence of CAF (SNU668; [2])	migration of gastric cancer cells (SNU668; [2])
O=c1[nH]cc(F)c(=O)[nH]1 [Example 5-FU, 5-fluorouracil]	the cell sizes increased and the cell growth rate slowed down	the cell viability of cancer cells further increased	the migration of gastric cancer cells further increased	the migration of gastric cancer cells increased				
Cc1cccc(C)c1NC(=O)c1ccccc1C(=O)O [Example, Ftaxilide]					the senescent fibroblasts returned to their original shapes	decreased again	the senescence of CAF was prevented	decreased again
